Data reported in ChEMBL document CHEMBL5620345, “Metal binding pharmacophore click-derived discovery of new broad-spectrum metallo-β-lactamase inhibitors” (Eur J Med Chem, 2023).

How the values were obtained:
[1] = Inhibition of recombinant VIM-5 (unknown origin) expressed in Escherichia coli (DE3) cells using FC5 as substrate by microplate reader assay
Escherichia coli [2] = assay: Antibacterial activity against Escherichia coli C1580 expressing blaIMP-1 clinical isolates assessed as fold potentiation incubated for 16 to 18 hrs by broth microdilution method; assay type: functional; details: time 16-18 hrs; also: test concentration or dose not given here
[3] = Inhibition of recombinant VIM-1 (unknown origin) expressed in Escherichia coli (DE3) cells using FC5 as substrate by microplate reader assay
Enterobacterales [4] = assay: Antibacterial activity against Carbapenem-Resistant Enterobacterales 19 expressing blaNDM-1 clinical isolates assessed as meropenem MIC incubated for 16 to 18 hrs by broth microdilution method; assay type: functional; details: time 16-18 hrs; also: test concentration or dose not given here
Enterobacterales [5] = assay: Antibacterial activity against Carbapenem-Resistant Enterobacterales 19 expressing blaNDM-1 clinical isolates assessed as fold potentiation incubated for 16 to 18 hrs by broth microdilution method; assay type: functional; details: time 16-18 hrs; also: test concentration or dose not given here
Klebsiella pneumoniae [6] = assay: Antibacterial activity against Klebsiella pneumoniae BAA2470 expressing blaNDM-1 clinical isolates assessed as fold potentiation incubated for 16 to 18 hrs by broth microdilution method; assay type: functional; details: time 16-18 hrs; also: test concentration or dose not given here
Escherichia coli [7] = assay: Antibacterial activity against Escherichia coli BAA2452 expressing blaNDM-1 clinical isolates assessed as meropenem MIC incubated for 16 to 18 hrs by broth microdilution method; assay type: functional; details: time 16-18 hrs; also: test concentration or dose not given here
Escherichia coli [8] = assay: Antibacterial activity against Escherichia coli C1541 expressing blaVIM-2 clinical isolates assessed as meropenem MIC incubated for 16 to 18 hrs by broth microdilution method; assay type: functional; details: time 16-18 hrs; also: test concentration or dose not given here
Klebsiella pneumoniae [9] = assay: Antibacterial activity against Klebsiella pneumoniae BAA2470 expressing blaNDM-1 clinical isolates assessed as meropenem MIC incubated for 16 to 18 hrs by broth microdilution method; assay type: functional; details: time 16-18 hrs; also: test concentration or dose not given here
[10] = Inhibition of recombinant NDM1 (unknown origin) expressed in Escherichia coli (DE3) cells using FC5 as substrate by microplate reader assay
Escherichia coli [11] = assay: Antibacterial activity against Escherichia coli C1541 expressing blaVIM-2 clinical isolates assessed as fold potentiation incubated for 16 to 18 hrs by broth microdilution method; assay type: functional; details: time 16-18 hrs; also: test concentration or dose not given here
Escherichia coli [12] = assay: Antibacterial activity against Escherichia coli C1580 expressing blaIMP-1 clinical isolates assessed as meropenem MIC incubated for 16 to 18 hrs by broth microdilution method; assay type: functional; details: time 16-18 hrs; also: test concentration or dose not given here
Escherichia coli [13] = assay: Antibacterial activity against Escherichia coli BAA2452 expressing blaNDM-1 clinical isolates assessed as fold potentiation incubated for 16 to 18 hrs by broth microdilution method; assay type: functional; details: time 16-18 hrs; also: test concentration or dose not given here
[14] = Inhibition of recombinant his tagged IMP1 (unknown origin) expressed in Escherichia coli (DE3) cells using FC5 as substrate by microplate reader assay
[15] = Inhibition of recombinant his tagged VIM-2 (unknown origin) expressed in Escherichia coli (DE3) cells using FC5 as substrate by microplate reader assay

| SMILES | IC50 [1] [nM] | fold change (FC) (Escherichia coli [2]) | IC50 [3] [nM] | MIC (Enterobacterales [4]) [µg/mL] | fold change (FC) (Enterobacterales [5]) | fold change (FC) (Klebsiella pneumoniae [6]) | MIC (Escherichia coli [7]) [µg/mL] | MIC (Escherichia coli [8]) [µg/mL] | MIC (Klebsiella pneumoniae [9]) [µg/mL] | IC50 [10] [nM] | fold change (FC) (Escherichia coli [11]) | MIC (Escherichia coli [12]) [µg/mL] | fold change (FC) (Escherichia coli [13]) | IC50 [14] [nM] | IC50 [15] [nM] |
| --- | --- | --- | --- | --- | --- | --- | --- | --- | --- | --- | --- | --- | --- | --- | --- |
| CCCc1ccc(C(c2cccc(-n3cc(-c4cccc(N)c4)nn3)c2)P(=O)(O)O)cc1 (stereo not given) | 0.56 | 16 | 530 | 8 | 8 | >2 | 16 | 2 | 64 | 460 | 8 | 2 | 8 | 190 | 14 |
| COc1ccc(C(c2cccc(-n3cc(-c4cccc(N)c4)nn3)c2)P(=O)(O)O)cc1 (stereo not given) | 25 | 32 | 1240 | 8 | 8 | >2 | 16 | 2 | 64 | 8090 | 8 | 1 | 8 | 3250 | 52 |
| Cc1ccc(C(c2cccc(-n3cc(-c4cccc(N)c4)nn3)c2)P(=O)(O)O)cc1 (stereo not given) | 1 | 32 | 620 | 8 | 8 | >2 | 8 | 1 | 64 | 1070 | 16 | 1 | 16 | 27 | 0.82 |
| CC(C)(C)c1ccc(C(c2cccc(-n3cc(-c4cccc(N)c4)nn3)c2)P(=O)(O)O)cc1 (stereo not given) | 1 | 16 | 710 | 8 | 8 | >2 | 16 | 2 | 64 | 180 | 8 | 2 | 8 | 1370 | 9 |
| CCc1ccc(C(c2cccc(-n3cc(-c4cccc(N)c4)nn3)c2)P(=O)(O)O)cc1 (stereo not given) | 7 | 8 | 1370 | 8 | 8 | >2 | 8 | 1 | 64 | 650 | 16 | 4 | 16 | 170 | 6 |
| Nc1cccc(-c2cn(-c3cccc(C(c4ccc(-c5ccccc5)cc4)P(=O)(O)O)c3)nn2)c1 (stereo not given) | 2 | 16 | 350 | 8 | 8 | >2 | 16 | 2 | 64 | 180 | 8 | 2 | 8 | 150 | 0.43 |
| Nc1cccc(-c2cn(-c3cccc(C(c4ccc(-c5ccc(Br)cc5)cc4)P(=O)(O)O)c3)nn2)c1 (stereo not given) | 2 | 32 | 1710 | 8 | 8 | >2 | 8 | 2 | 64 | 4900 | 8 | 1 | 16 | 12000 | 8 |
| CSc1ccc(C(c2cccc(-n3cc(-c4cccc(N)c4)nn3)c2)P(=O)(O)O)cc1 (stereo not given) | 0.12 | 16 | 640 | 8 | 8 | >2 | 16 | 1 | 64 | 500 | 16 | 2 | 8 | 110 | 1 |
| Nc1cccc(-c2cn(-c3cccc(C(c4cccc5ccccc45)P(=O)(O)O)c3)nn2)c1 (stereo not given) | 0.29 | 64 | 130 | 4 | 16 | >2 | 16 | 1 | 64 | 920 | 16 | 0.5 | 8 | 37 | 6 |
| N#Cc1ccc(C(c2cccc(-n3cc(-c4cccc(N)c4)nn3)c2)P(=O)(O)O)cc1 (stereo not given) | 3 | 16 | 270 | 8 | 8 | >2 | 16 | 2 | 64 | 1120 | 8 | 2 | 8 | 110 | 52 |
| CCCCc1ccc(C(c2cccc(-n3cc(-c4cccc(N)c4)nn3)c2)P(=O)(O)O)cc1 (stereo not given) | 1 | 32 | 460 | 8 | 8 | >2 | 8 | 2 | 64 | 150 | 8 | 1 | 16 | 295 | 15 |
